This series is described as follows: Human HepG2 cell viability assay in 384 well format. The class given is toxicity, cell-based. More on the design: dose 125 nL, time 70.5 hour; cytotoxicity at 70.5 h: concentration not given beside the values. As to conditions: HepG2 cells, read-out: Inhibition.
`c1cnc(N2CCOCC3(CNCCO3)C2)nc1` (configuration not stated): the cytotoxicity at 70.5 h is 15.5%.

In the case of `Cn1cccc1C(=O)NCc1cn2c(n1)CN(C(=O)c1ccsc1)CC2`, the cytotoxicity at 70.5 h is -8.13%.

On to `CN1CC2(COCCN(c3ncccn3)C2)OCC1=O` (configuration not stated), for which the cytotoxicity at 70.5 h was -11.5%.

On to `CCCN1CCc2nc(N3CCOCC3)nc(NC(C)C)c2C1`, for which the cytotoxicity at 70.5 h is -8.9%.

Consider `Cc1nc(N2CCOCC2)nc2c1CN(CC(=O)N(C)C)CC2`, for which the cytotoxicity at 70.5 h is -13.5%.

As for `COCC1CN(C(=O)c2cccs2)Cc2nccn2C1` (configuration not stated), the cytotoxicity at 70.5 h is -8.64%.

Regarding `COCCC(=O)N1CCC2(CCN(Cc3cccc(F)c3)C2)C1` (configuration not stated), the cytotoxicity at 70.5 h turned out to be 24.8%.

As to `Fc1cnc(NCC2Cn3nnc(-c4ccccc4)c3CO2)nc1` (configuration not stated), the cytotoxicity at 70.5 h worked out at 24.4%.

Regarding `Fc1cccc(-c2nnn3c2COC(CNc2ncccn2)C3)c1` (configuration not stated), the cytotoxicity at 70.5 h was determined as 26.8%.

Turning to `c1csc(CN2CC[C@H]3O[C@@H](COCC4CC4)CC[C@H]32)c1`, the cytotoxicity at 70.5 h amounted to 27%.

In the case of `CCCS(=O)(=O)NC1CCc2c(ccc(=O)n2CC2CC2)C1` (configuration not stated), the cytotoxicity at 70.5 h was -8.69%.

Regarding `COCCN1CCn2cc(CN(C)Cc3ccco3)nc2C1`, the cytotoxicity at 70.5 h was -7.59%.

Consider `c1ccc(-c2nnn3c2COC(CNCC2CC2)C3)cc1` (configuration not stated), for which the cytotoxicity at 70.5 h is -0.253%.

With `Cc1ccc2c(n1)N(CCN(C)C)CCN(C(=O)N1CCOCC1)C2`, the cytotoxicity at 70.5 h is -3.39%.

Take `C[C@H]1C[C@H]2CN(C(=O)CCOc3ccccc3)CC[C@H]2O1`: the cytotoxicity at 70.5 h is -1.04%.

In the case of `Cn1cccc1C(=O)N1CCn2cc(CN3CCCC3)nc2C1`, the cytotoxicity at 70.5 h was -1.14%.

Consider `Cc1occc1C(=O)N1Cc2nccn2CC(CN2CCCC2)C1` (configuration not stated), for which the cytotoxicity at 70.5 h is -14.1%.

On to `CC(C)NC(=O)N1CCN(CC2CC2)c2ncccc2C1`, for which the cytotoxicity at 70.5 h is -15.2%.

Consider `Cc1occc1C(=O)N1Cc2nccn2CC(CN2CCOCC2)C1` (configuration not stated), for which the cytotoxicity at 70.5 h was -6.67%.

Regarding `COCCN1CCCC2(CCN(c3ccsc3)C2=O)C1` (configuration not stated), the cytotoxicity at 70.5 h was -7.27%.

Regarding `COCCC(=O)N1CCC2(CCN(Cc3cccc(F)c3)CC2)C1`, the cytotoxicity at 70.5 h was -4.51%.

With `COCCNC(=O)[C@H]1C[C@@H]2CCN(CCc3ccccc3)C[C@H]2O1`, the cytotoxicity at 70.5 h was -11.2%.

Take `O=C(NCC1CC1)[C@H]1C[C@@H]2CCN(CCc3ccccc3)C[C@H]2O1`: the cytotoxicity at 70.5 h was -4.59%.

With `Cc1ncsc1CN1C[C@@H]2COC[C@]2(C(=O)NCc2ccccn2)C1`, the cytotoxicity at 70.5 h was -9.2%.

Regarding `Cc1ncsc1CN1C[C@@H]2COC[C@]2(C(=O)NCc2cccnc2)C1`, the cytotoxicity at 70.5 h is -14.8%.

On to `c1cncc(CN2CCCn3nnc(COCC4CC4)c3C2)c1`, for which the cytotoxicity at 70.5 h is -9.26%.

For the molecule `Fc1cccc(N2CCCC3(CN(Cc4ccco4)CCO3)C2)c1` (configuration not stated), the cytotoxicity at 70.5 h is -11.7%.

Take `Cc1ccc2c(n1)N(CCN(C)C)CCN(C(=O)c1ccoc1)C2`: the cytotoxicity at 70.5 h was -11.8%.

Take `Cn1cc(CN2CC[C@H]3O[C@@H](COCc4cccnc4)CC[C@H]32)cn1`: the cytotoxicity at 70.5 h is -12%.

Consider `Cn1cc(CN2CCOC3(CCCN(c4cccc(F)c4)C3)C2)cn1` (configuration not stated), for which the cytotoxicity at 70.5 h was -7.93%.

Regarding `Cc1ccc(CN2CCOC3(CCCN(c4cccc(F)c4)C3)C2)o1` (configuration not stated), the cytotoxicity at 70.5 h was -6.42%.

For `Fc1ccc(CN2CC[C@H]3O[C@@H](COCc4cccnc4)CC[C@H]32)cc1`, the cytotoxicity at 70.5 h is -6.39%.

On to `c1ccc(COC[C@H]2CC[C@H]3[C@H](CCN3Cc3cccs3)O2)nc1`, for which the cytotoxicity at 70.5 h was -3.77%.

As for `CCCC(=O)N1CCN(CCN(C)C)c2nc(C)ccc2C1`, the cytotoxicity at 70.5 h was -2.97%.

In the case of `CN(Cc1cn2c(n1)CN(Cc1ccc(F)cc1)CC2)Cc1ccco1`, the cytotoxicity at 70.5 h is -8.36%.

Take `c1ccc(COC[C@H]2CC[C@H]3[C@H](CCN3Cc3cccnc3)O2)nc1`: the cytotoxicity at 70.5 h was 9.23%.

As for `COc1ccc(CN2C[C@@H]3COC[C@@H](N4CCN(C)CC4)[C@@H]3C2)cc1`, the cytotoxicity at 70.5 h was 0.325%.

(Values after ChEMBL document CHEMBL3507680, “University of Dundee, Gates Library screen for HepG2 cell viability”.)
